Earlier results on one molecule are cited in patent US7250518B2, “Nicotinamide acids, amides, and their mimetics active as inhibitors of PDE4 isozymes” (Pfizer Inc., priority 2001, dated 2007).

Usually IC50 stands for the midpoint of a concentration-inhibition curve.

The test system of data set [1] is PDE4 derived from tumor cells. Particulars: read-out: IC50 against a PDE4 derived from tumor cells.

As to `Clc1nc2c(N3CCCC3)nc(N3CCNCC3)nc2nc1NCc1ccccc1` [Formula (0.0.55)], in data set [1], the IC50 was 16 nM. Further, in the data set with tumor cells, the “Concentrations inhibiting the growth of tumor cells” value is “micromolar concentrations”.
